Legend:
AXL (h) kinase = AXL (h) kinase (Homo sapiens (Human), UniProt P30530); test: AXL (h) kinase activity test (EZ Reader mobility shift, FLPeptide30); format: biochemical; settings: ATP 100 μM, AXL 1 nM
Method: The effect of the disclosed compounds as protein kinase inhibitors can be evaluated by the following experiments. The AXL (h) kinase activity of the compounds of the invention is tested by the following methods:
Reagents used in the experiment were AXL (Carna Bioscience, Cat No.: 08-107) and FLPeptide30 (PerkinElmer, Cat No.: 760430). The instruments involved were thermotank (Thermo Scientific), oscillator (QILINBEIER), EZ Reader (PerkinElmer, Cat No.: 122919), Non-contact stage pipetting system (Labcyte Inc., Cat No.: Echo 550), and non-contact nanoliter pipetting system (TECAN, Cat No.: EVO200).
Compound dilution: 1) Dissolve the compound in DMSO to the appropriate concentration; 2) Using TECAN EVO200 to dilute 10 concentrations in 384 microplates by three times gradient, the highest concentration is 1 mM; Echo550 was used to transfer 20 nL solution from the dilution plate to the test plate.
2) Add 15 μL solution 1 to each well of the test plate and incubate at room temperature for 30 minutes.
4) Add 5 μL solution 2 to start the reaction, and the final volume of each well is 20 μL.
5) Incubated at 25° C. for 90 min, and then added 75 μL stop solution (containing 0.5 M EDTA) to terminate the reaction.
6) The sample of each well was analyzed using EZ reader.
1) Based on the measured conversion rate (CR), the Remaining Activity (%) of the kinase was calculated according to the following function:
2) XLFit (Equation 201) software was used to fit IC50.
The above methods can be used to obtain the inhibitory IC50 and/or inhibitory constant Ki.

Ba/F3 AXL cells = test: Cell activity test: growth inhibition of Ba/F3 AXL cell line (CTG, 72 h); format: cell-based; settings: Mus musculus, BaF3
Method: This experiment was conducted by detecting the inhibitory effect of compounds on the growth of Ba/F3 AXL cell line and Ba/F3 parental cell line. Cells in logarithmic growth stage were harvested and counted by platelet counter. Trypan blue rejection method was used to detect cell viability to ensure that the cell viability was above 90%. Adjust cell concentration; 90 μL cell suspension was added to 96-well plates, respectively; Cells in 96-well plates were cultured overnight at 37° C., 5% CO2 and 95% humidity. A 10-fold drug solution was prepared, with the highest concentration of 10 μM, and a total of 9 concentrations were diluted at 3.16 times the ratio. 10 μL drug solution was added to each well of the 96-well plate inoculated with cells, and three wells were set for each drug concentration; 96-well plates were incubated at 37° C., 5% CO2 and 95% humidity for 72 h, and CTG analysis was performed. Thaw the CTG reagent and balance the cell plates to room temperature for 30 minutes. Add the same volume of CTG solution to each well and vibrate on a fixed-rail shaker for 5 minutes to crack the cells. Place the cell plates at room temperature for 20 minutes to stabilize the cold light signal and read the cold light value. The GraphPad Prism 5.0 software was used to analyze the data, and the nonlinear S-curve regression was used to fit the data to obtain the dose-effect curve, and the IC50 value was calculated accordingly. Cell survival rate (%)=(Lum drug to be tested −Lum culture medium control)/(Lum cell control−Lum culture medium control)×100%.

CYP3A4 [1] = biological target: T1, CYP3A4 (Homo sapiens (Human), UniProt P08684); settings: hepatocytes, 2 days, 10 μM
Method: (§1) Cryopreservation of human primary hepatocytes was resuscitated in medium after take out from liquid nitrogen. […] Plates were incubated at 37° C. and 5% CO2 for 4-6 hours to confirm the formation of monolayer cells attached to the wall. Then the adherent culture medium was changed into hepatocyte culture medium and the culture was continued overnight.
After the test compounds and positive control inducers were co-incubated with cells, the incubation medium was removed. […] After the samples were extracted and processed, the generation of metabolites and the kinase activities of CYP1A2, 2B6 and 3A4 was quantitatively detected by LC-MS/MS, respectively.
The induction of test substance on each subenzyme was determined by detecting the generation rate of metabolites of CYP450 subenzyme substrates. The relative activity of each subenzyme was expressed as a percentage of the relative blank control, and the data were calculated according to the following formula:
Fold of induction=sample subenzyme activity/blank subenzyme activity
Relative positive control activity (PC %)=(Fold of induction of sample group—Fold of induction of blank group)/(Fold of induction of positive control group—Fold of induction of blank group)×100

CYP3A4 [2] = biological target: T1, CYP3A4; settings: hepatocytes, 2 days, 10 μM; remark: listed apart in the source
Method: as §1
After the test compound and positive control inducer were co-incubated with cells, the medium was removed and mercaptoethanol was added for cell lysis. Total RNA in cells was extracted with RNA extraction kit, and then transcribed into cDNA with cDNA reverse transcription kit. The 10 μL cDNA template was taken and analyzed on the fluorescence quantitative PCR instrument to obtain the Ct value.
The gene expression data were corrected by internal reference 18S, and the relative expression differences were determined by the method of ΔΔCt commonly used in fluorescence quantitative PCR.
The ΔCt, ΔΔCt and relative expression difference values of the target genes were calculated according to the following formula:
ΔCt=Ct value of target gene−Ct value of internal reference 18S
ΔΔCt=ΔCt of experimental group or positive control group−ΔCt of blank control group
Relative expression difference (fold of induction)=2−ΔΔ^Ct

CYP3A4/5 = test: Inhibition of human liver microsomes CYP450, 3A4/5; format: in vitro ADME; settings: compounds 10 μM (positive control: concentration not given)

Chain of AXL (h) kinase (P30530 473-894): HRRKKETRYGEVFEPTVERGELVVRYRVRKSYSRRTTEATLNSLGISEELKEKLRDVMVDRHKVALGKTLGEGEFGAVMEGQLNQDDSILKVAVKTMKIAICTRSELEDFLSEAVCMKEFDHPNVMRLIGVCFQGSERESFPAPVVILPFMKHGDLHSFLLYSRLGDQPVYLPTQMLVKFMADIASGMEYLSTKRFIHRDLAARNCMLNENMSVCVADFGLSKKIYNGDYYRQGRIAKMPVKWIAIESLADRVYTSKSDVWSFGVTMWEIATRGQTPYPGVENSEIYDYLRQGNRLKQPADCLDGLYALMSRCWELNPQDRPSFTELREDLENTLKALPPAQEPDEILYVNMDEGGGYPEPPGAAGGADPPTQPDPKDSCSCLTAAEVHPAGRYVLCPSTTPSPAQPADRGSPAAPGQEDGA

Row | IC50 (AXL (h) kinase) [nM] | IC50 (Ba/F3 AXL cells) [nM] | Enzymatic activity CYP3A4 Fold of induction (CYP3A4 [1]) | Gene expression CYP3A4 Fold of induction (CYP3A4 [2]) | Inhibitory rate (%) 3A4/5 (CYP3A4/5) | SMILES
1 | 5 to 50 | < 5 | 0.801 | 4.40 | No inhibition | CC(C)C(=O)N1CCC(c2cc(-c3ccc(NC(=O)c4c5n(n(-c6ccccc6)c4=O)CCOC5)cc3)c3c(N)ncnn23)CC1 [example 3, N-(4-(4-amino-7-(1-isobutyrylpiperidin-4-yl)pyrrolo[2,1-f][1,2,4]triazin-5-yl)phenyl)-2-oxo-1-phenyl-2,4,6,7-tetrahydro-1H-pyrazolo[5,1-c][1,4]oxazine-3-carboxamide]
2 | < 5 | – | – | – | No inhibition | Nc1ncnn2c1c(-c1ccc(NC(=O)c3c4n(n(-c5ccccc5)c3=O)CCOC4)cc1)cc2[C@H]1CC[C@H](O)CC1 [example 7, N-(4-(4-amino-7-((1r,4r)-4-hydroxycyclohexyl)pyrrolo[2,1-f][1,2,4]triazin-5-yl)phenyl)-2-oxo-1-phenyl-2,4,6,7-tetrahydro-1H-pyrazolo[5,1-c][1,4]oxazine-3-carboxamide]
3 | – | < 5 | 0.779 | 24.7 | No inhibition | Nc1ncnn2c(C3CCN(C(=O)C4CC4)CC3)cc(-c3ccc(NC(=O)c4c5n(n(-c6ccccn6)c4=O)CCCC5)cc3F)c12 [example 10, N-(4-(4-amino-7-(1-(cyclopropanecarbonyl)piperidin-4-yl)pyrrolo[2,1-f][1,2,4]triazin-5-yl)-3-fluorophenyl)-2-oxo-1-(pyridin-2-yl)-1,2,4,5,6,7-hexahydropyrazolo[1,5-a]pyridine-3-carboxamide]
4 | 5 to 50 | < 5 | 1.26 | 276 | No inhibition | CC(C)C(=O)N1CCC(c2cc(-c3ccc(NC(=O)c4c5n(n(-c6ccccc6)c4=O)CCCC5)cc3F)c3c(N)ncnn23)CC1 [example 16, N-(4-(4-amino-7-(1-isobutyrylpiperidin-4-yl)pyrrolo[2,1-f][1,2,4]triazin-5-yl)-3-fluorophenyl)-2-oxo-1-phenyl-1,2,4,5,6,7-hexahydropyrazolo[1,5-a]pyridine-3-carboxamide]
5 | 5 to 50 | < 5 | 1.5 | 284 | – | CC(C)C(=O)N1CCC(c2cc(-c3ccc(NC(=O)c4c5n(n(-c6ccccc6)c4=O)CCCC5)cc3)c3c(N)ncnn23)CC1 [example 19, N-(4-(4-amino-7-(1-isobutyrylpiperidin-4-yl)pyrrolo[2,1-f][1,2,4]triazin-5-yl)phenyl)-2-oxo-1-phenyl-1,2,4,5,6,7-hexahydropyrazolo[1,5-a]pyridine-3-carboxamide]
6 | – | 5 to 50 | – | – | No inhibition | Nc1ncnn2c1c(-c1ccc(NC(=O)c3c4n(n(-c5ccccn5)c3=O)CCCC4)cc1)cc2[C@H]1CC[C@H](O)CC1 [example 20, N-(4-(4-amino-7-((1r,4r)-4-hydroxycyclohexyl)pyrrole[2,1-f][1,2,4]triazin-5-yl)phenyl)-2-oxo-1-(pyridin-2-yl)-1,2,4,5,6,7-hexahydropyrazol[1,5-a]pyridine-3-carboxamide]
7 | 5 to 50 | < 5 | – | – | – | CC(C)(F)C(=O)N1CCC(c2cc(-c3ccc(NC(=O)c4c5n(n(-c6ccccn6)c4=O)CCCC5)cc3F)c3c(N)ncnn23)CC1 [example 26, N-(4-(4-amino-7-(1-(2-fluoro-2-methylpropanoyl)piperidin-4-yl)pyrrolo[2,1-f][1,2,4]triazin-5-yl)-3-fluorophenyl)-2-oxo-1-(pyridin-2-yl)-1,2,4,5,6,7-hexahydropyrazolo[1,5-a]pyridine-3-carboxamide]
8 | 50 to 100 | 5 to 50 | – | – | – | CC(C)(F)C(=O)N1CCC(c2cc(-c3ccc(NC(=O)c4c5n(n(-c6ccccn6)c4=O)CCOC5)cc3F)c3c(N)ncnn23)CC1 [example 27, N-(4-(4-amino-7-(1-(2-fluoro-2-methylpropanoyl)piperidin-4-yl)pyrrolo[2,1-f][1,2,4]triazin-5-yl)-3-fluorophenyl)-2-oxo-1-(pyridin-2-yl)-2,4,6,7-tetrahydro-1H-pyrazolo[5,1-c][1,4]oxazine-3-carboxamide]
9 | 5 to 50 | < 5 | 1.06 | 6.37 | – | CC(C)(O)C(=O)N1CCC(c2cc(-c3ccc(NC(=O)c4c5n(n(-c6ccccn6)c4=O)CCCC5)cc3F)c3c(N)ncnn23)CC1 [example 29, N-(4-(4-amino-7-(1-(2-hydroxy-2-methylpropanoyl)piperidin-4-yl)pyrrolo[2,1-f][1,2,4]triazin-5-yl)-3-fluorophenyl)-2-oxo-1-(pyridin-2-yl)-1,2,4,5,6,7-hexahydropyrazolo[1,5-a]pyridine-3-carboxamide]
10 | 5 to 50 | < 5 | – | – | No inhibition | Nc1ncnn2c(C3CCN(C(=O)C4CC4)CC3)cc(-c3ccc(NC(=O)c4c5n(n(-c6ccccn6)c4=O)CCCC5)cc3)c12 [example 36, N-(4-(4-amino-7-(1-(cyclopropanecarbonyl)piperidin-4-yl)pyrrolo[2,1-f][1,2,4]triazin-5-yl)phenyl)-2-oxo-1-(pyridin-2-yl)-1,2,4,5,6,7-hexahydropyrazolo[1,5-a]pyridine-3-carboxamide]
11 | 5 to 50 | < 5 | – | – | – | CC(C)(C)C(=O)N1CCC(c2cc(-c3ccc(NC(=O)c4c5n(n(-c6ccccn6)c4=O)CCOC5)cc3F)c3c(N)ncnn23)CC1 [example 37]
12 | 5 to 50 | < 5 | – | – | – | Cn1cc(-n2c(=O)c(C(=O)Nc3ccc(-c4cc(C5CCN(C(=O)C6CC6)CC5)n5ncnc(N)c45)cc3)c3n2CCCC3)cn1 [example 47]
13 | 5 to 50 | 5 to 50 | – | – | – | Nc1ncnn2c(C3CCN(C(=O)C4CC4)CC3)cc(-c3ccc(NC(=O)c4c5n(n(-c6cccnc6)c4=O)CCCC5)cc3)c12 [example 49]

Row | SMILES | IC50 (AXL (h) kinase) [nM] | IC50 (Ba/F3 AXL cells) [nM] | Enzymatic activity CYP3A4 Fold of induction (CYP3A4 [1]) | Gene expression CYP3A4 Fold of induction (CYP3A4 [2]) | Inhibitory rate (%) 3A4/5 (CYP3A4/5)
14 | CC(C)(F)C(=O)N1CCC(c2cc(-c3ccc(NC(=O)c4c5n(n(-c6ccccn6)c4=O)CCCC5)cc3)c3c(N)ncnn23)CC1 [example 25, N-(4-(4-amino-7-(1-(2-fluoro-2-methylpropanoyl)piperidin-4-yl)pyrrolo[2,1-f][1,2,4]triazin-5-yl)phenyl)-2-oxo-1-(pyridin-2-yl)-1,2,4,5,6,7-hexahydropyrazolo[1,5-a]pyridine-3-carboxamide] | 5 to 50 | < 5 | – | – | –
